The subject of assay [1] is CLL-PBMC. Conditions: 72 h. As to the method:
(§1) Apoptosis: PBMC (1 million cells/ml) from B-CLL patients or normal subjects were cultured in RPMI media supplemented with 10% FBS, L-glutamine and penicillin/streptomycin at 37° C. in 5% CO2 and treated with either vehicle or the PDE7 inhibitor BRL-50481 for 72 h. Apoptosis was assessed by flow cytometry as the percentage of cells stained with Annexin V and Propidium Iodide (PI) and analyzed by FACScan using CELLQuest software (Becton-Dickinson Immunocytometry System) (18).
(§2) PBMC from CLL patients (n=10) and normal subjects (n=6) were grown in the absence or presence of BRL-50481 (10 μM, 30 μM and 100 μM) for 72 h.

A further assay concerns normal-PBMC. Conditions: 10, 30 and 100 μM, 72 h, normal subjects n=6. The procedure: as §1, §2
Another assay concerns CD8+ T-lymphocytes. The settings on record: 30 μM, literature (ref 25); cited from earlier work.
The next assay concerns monocytes or macrophages. Conditions: 30 μM, literature (ref 25); cited from earlier work.
In assay [2] the test system is CLL-PBMC. The settings on record: literature (refs 8, 9, 13); cited from earlier work.

With `Cc1ccc([N+](=O)[O-])cc1S(=O)(=O)N(C)C` [BRL-50481, 3-(N,N-dimethylsulfonamido)-4-methyl-nitrobenzene], the “dose dependence of apoptosis induction in CLL-PBMC” value in the assay with CLL-PBMC [1] (10 μM, 30 μM and 100 μM) is “consistently and dose-dependently induced apoptosis”. For the same molecule, in the assay with CLL-PBMC [1] (≧30 uM, CLL patients n=10, relative to vehicle control), the “increase in apoptosis in CLL-PBMC” value is 20-40%. The “induction of apoptosis in PBMC from normal subjects” value with normal-PBMC is given as “not in PBMC from normal subjects”. Further, the “inhibition of IL-5-promoted proliferation of CD8+ T-lymphocytes” value in the assay on CD8+ T-lymphocytes is given as “failed to inhibit”. For the same molecule, the “effect on TNFα release in monocytes or macrophages” value in the assay with monocytes or macrophages is on record as “little effect”.

As to `Cn1c(=O)c2[nH]cnc2n(C)c1=O` [theophylline], the “induction of apoptosis in CLL-PBMC” value in the assay on CLL-PBMC [2] is “induces apoptosis”.

Take `CN(C(=O)CCCOc1ccc2[nH]c(=O)ccc2c1)C1CCCCC1` [cilostamide]: in the assay with CLL-PBMC [2], the “induction of apoptosis in CLL-PBMC” value is “does not induce apoptosis”.

The values are drawn from patent US8114590B2, “Diagnosis and treatment of chronic lymphocytic leukemia (CLL)” (The Regents of the University of California, priority 2005, dated 2012).
